Columns and labels:
[1] = compound: C1=CC2=C(C=C(C(=C2N=C1)O)N=NC3=CC4=C(C=C3)C=C(C=C4)S(=O)(=O)O)S(=O)(=O)O + NC(=O)Nc1cc(-c2cccc(F)c2)sc1C(=O)N[C@H]1CCCNC1 [AZD7762] (partner 0.2 µM); test: relative viability (nuclei count vs DMSO), 5 days (fraction); higher = more cells survive
Method in brief: (§1)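 Lung cancer cell lines in 1536-well plates got either a single drug or a fixed anchor-drug dose together with five library-drug doses (not always all listed) in √10 steps, by pin tool, on the day after seeding. Nuclei were counted after 5 days, and relative viability is the treated-to-vehicle ratio of nuclei counts. Values are medians of duplicate plates.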

[2] = compound: C1=CC2=C(C=C(C(=C2N=C1)O)N=NC3=CC4=C(C=C3)C=C(C=C4)S(=O)(=O)O)S(=O)(=O)O + O=C(CCCCCCC(=O)Nc1ccccc1)NO [Vorinostat] (partner 1 µM); test: as above
Method in brief: as §1

Cell Line	relative viability ([1]; first compound 0.08 µM)	relative viability ([1]; first compound 0.253 µM)	relative viability ([1]; first compound 0.8 µM)	relative viability ([1]; first compound 2.53 µM)	relative viability ([1]; first compound 8 µM)	relative viability ([2]; first compound 0.08 µM)	relative viability ([2]; first compound 0.253 µM)	relative viability ([2]; first compound 0.8 µM)	relative viability ([2]; first compound 2.53 µM)	relative viability ([2]; first compound 8 µM)
201T	0.691	0.652	0.56	0.632	0.634	0.997	1.04	0.961	1.08	0.942
A-427	0.823	0.816	0.767	0.822	0.743	0.894	0.821	0.796	0.861	0.924
ABC-1	0.741		0.831	0.691	0.667	0.875	1.12	0.943	1.49	0.982
BEN	0.694	0.749	0.729	0.77	0.557	0.562	0.695	0.526	0.599	0.589
CAL-12T	0.621	0.6	0.61	0.635	0.601	0.916	0.571	0.668	0.752	0.725
COR-L23						0.484	0.396	0.418	0.449	0.599
COR-L 105						0.852	0.86	0.742	0.866	0.881
ChaGo-K-1	0.933	0.82	0.845	0.892	0.721	0.827	0.812	0.698	0.723	0.494
EKVX	0.836	0.78	0.61	0.702	0.702	0.757	0.694	0.643	0.76	0.656
EMC-BAC-2	1.04	1.1	1.09	1.14	0.995	0.377	0.458	0.467	0.441	0.45
EPLC-272H	0.204	0.212	0.177	0.311	0.177	0.453	0.358	0.306	0.876	0.491
H3255	0.893	0.881	0.89	0.939	0.899	0.84	0.828	0.803	0.846	0.754
HARA	0.384	0.261	0.267	0.362	0.469	0.631	0.383	0.565	0.493	0.551
HCC-15	1.32	1.25	1.23	1.18	1.15	0.818	0.857	0.779	0.826	0.827
HCC-44	1.01	1.03	0.997	1.05	1.04	1.22	1.08	1.08	1.11	0.995
HCC-78	0.725	0.628	0.675	0.657	0.591	0.437	0.471	0.458	0.437	0.434
HCC-366	0.291	0.273	0.26	0.272	0.291	0.442	0.463	0.392	0.338	0.328

Cell Line	relative viability ([1]; first compound 0.08 µM)	relative viability ([1]; first compound 0.253 µM)	relative viability ([1]; first compound 0.8 µM)	relative viability ([1]; first compound 2.53 µM)	relative viability ([1]; first compound 8 µM)	relative viability ([2]; first compound 0.08 µM)	relative viability ([2]; first compound 0.253 µM)	relative viability ([2]; first compound 0.8 µM)	relative viability ([2]; first compound 2.53 µM)	relative viability ([2]; first compound 8 µM)
HCC-827	0.184	0.279	0.235	0.192	0.246	0.926	0.813	0.826	0.876	0.785
HOP-62	0.715	0.34	0.607	0.731	0.57	0.438	0.693	0.602	0.619	0.6
IA-LM						1.09	0.95	0.97	1.04	0.935
LC-2-ad	0.894	0.802	0.829	0.847	0.796	0.702	0.744	0.729	0.699	0.725
LCLC-97TM1	0.354	0.22	0.292	0.214	0.314	0.593	0.657	0.632	0.575	0.715
LCLC-103H	0.85	0.801	0.758	0.774	0.891	0.797	0.784	0.827	0.785	0.859
LK-2	0.549	0.345	0.369	0.452	0.285	0.308	0.333	0.292	0.263	0.178
LOU-NH91	0.779	0.75	0.737	0.794	0.676	1	0.89	0.903	0.865	0.639
LU99A	0.433	0.376	0.421	0.35	0.37	0.534	0.445	0.63	0.494	0.53
LXF-289	1.23	1.06	1.07	1.11	1.15	0.75	0.719	0.817	0.704	0.766
NCI-H23	0.186	0.199	0.317	0.177	0.312	0.661	0.627	0.599	0.561	0.633
NCI-H322M	0.576	0.625	0.522	0.598	0.71	0.967	0.825	0.864	0.856	0.905
NCI-H358	0.375	0.667	0.426	0.544	0.518	0.676	0.711	0.628	0.748	0.701
NCI-H441	1.18	1.08	0.946	1.13	1.13	0.903	0.684	0.845	0.805	0.837
NCI-H460	0.612	0.629	0.605	0.637	0.53	0.955	0.66	0.684	0.708	0.71
NCI-H520						0.66	0.662	0.761	0.681	0.753
NCI-H522	0.783	0.932	0.971	0.787	0.714	0.98	1.01	0.943	0.999	0.977

Reference: the supplement of paper PMC10307832
